≈ marks a conversion by molar mass, not a printed value. Where only a bound is given, the exact number is not on record here.

The subject of data set [1] is Mycobacterium tuberculosis. The data set is described as follows: Antimycobacterial activity against Mycobacterium tuberculosis H37Rv assessed as inhibition of bacterial growth at 50 ug/ml preincubated for 72 hrs followed by phAE202 and Cacl2 addition and measured after 4 hrs by luciferase reporter mycobacterio-phage assay. The class given is functional. Particulars: time 76 hrs. Background: Reporter assays use an easily measured gene product as a stand-in for the process of interest.

For data set [2], the system named is Mycobacterium tuberculosis. The data set is described as follows: Antimycobacterial activity against Mycobacterium tuberculosis H37Rv assessed as reduction in bacterial growth preincubated for 72 hrs followed by phAE202 and Cacl2 addition and measured after 4 hrs by luciferase reporter mycobacterio-phage assay. In kind it is functional. Particulars: time 76 hrs.

In data set [3] the test system is Mycobacterium tuberculosis. The data set can be described thus: Antimycobacterial activity against Mycobacterium tuberculosis H37Rv assessed as inhibition of bacterial growth at 100 ug/ml preincubated for 72 hrs followed by phAE202 and Cacl2 addition and measured after 4 hrs by luciferase reporter mycobacterio-phage assay. As to conditions: time 76 hrs. In kind it is functional.

Data set [4] can be described thus: Cytotoxicity against mouse BA/F3 cells assessed as cell viability at 10 to 50 ug/ml incubated for 24 hrs by WST-1 assay relative to control. The class given is cell-based, BaF3. Particulars: at 10 to 50 µg/mL, dose 10-50 µg/ml, read-out: Activity. In general terms: Tetrazolium dyes change colour on reduction, which living cells bring about.
A short description of data set [5]: Cytotoxicity against human Mo7e cells assessed as cell viability at 10 to 50 ug/ml incubated for 24 hrs by WST-1 assay relative to control. In kind it is cell-based, M07E. Particulars: at 10 to 50 µg/mL, dose 10-50 µg/ml, read-out: Activity.

What is called inhibition is the change of the read-out against control, counted positive when it falls. For `O=C(/C=C/c1c[nH]c2ccccc12)c1ccc(F)cc1`, the inhibition at 50 µg/mL in data set [1] was 50.3%. Also, the MIC in data set [2] was found to be 188 µM (≈ 49.9 µg/mL). Further, the inhibition at 100 µg/mL in data set [3] stood at 54.2%.
For `O=C(/C=C/c1c[nH]c2ccccc12)c1ccc(Cl)cc1Cl`, in that order: 52.3%, 164 µM (≈ 51.9 µg/mL) and 55.2%.
In the case of `O=C1CCCC/C1=C\c1cc2ccccc2[nH]1`, the inhibition at 50 µg/mL in data set [1] worked out at 53.1%. In addition, the MIC in data set [2] came to 221 µM (≈ 49.8 µg/mL). The inhibition at 100 µg/mL in data set [3] worked out at 62%.
In the same order, the values of `O=C(/C=C/c1c[nH]c2ccccc12)c1ccc(Br)cc1` are 64.9%, 155 µM (≈ 50.6 µg/mL) and 65.9%.
Consider `O=C(/C=C/c1c[nH]c2ccccc12)c1cccc([N+](=O)[O-])c1`, for which the inhibition at 50 µg/mL in data set [1] was determined as 48.7%. Further, in data set [2], the MIC is above 342 µM. In addition, the inhibition at 100 µg/mL in data set [3] amounted to 51.7%.
For the compound `O=C(/C=C/c1c[nH]c2ccccc12)c1ccc(C(F)(F)F)cc1`, the inhibition at 50 µg/mL in data set [1] came out at 29.7%. For the same compound, the MIC in data set [2] was above 317 µM. Also, the inhibition at 100 µg/mL in data set [3] was found to be 31.2%.
For `O=C(/C=C/c1c[nH]c2ccccc12)c1ccc(-c2ccc[nH]2)cc1`, in data set [1], the inhibition at 50 µg/mL worked out at 26.4%. Besides, in data set [2], the MIC is above 423 µM. The inhibition at 100 µg/mL in data set [3] amounted to 49.4%.
On to `O=C(/C=C/c1c[nH]c2ccccc12)c1cccc(C(F)(F)F)c1`, for which, in data set [1], the inhibition at 50 µg/mL is 24.5%. Besides, in data set [2], the MIC was above 317 µM. Moreover, the inhibition at 100 µg/mL in data set [3] came out at 26.3%.
For the compound `Cc1ccc(C(=O)/C=C/c2c[nH]c3ccccc23)cc1`, in data set [1], the inhibition at 50 µg/mL came out at 41.7%. Moreover, in data set [2], the MIC is above 382 µM. The inhibition at 100 µg/mL in data set [3] turned out to be 50.9%.
For `O=C(/C=C/c1c[nH]c2ccccc12)c1ccc2ccccc2c1`, in that order: 30.8%, above 336 µM and 41.8%.
In the same order, the values of `O=C(/C=C/c1c[nH]c2ccccc12)c1ccncc1` are 58.4%, 201 µM (≈ 49.9 µg/mL) and 64.2%.
In the case of `CO[C@H]1/C=C/O[C@@]2(C)Oc3c(C)c(O)c4c(O)c(c(/C=N/N5CCN(C)CC5)c(O)c4c3C2=O)NC(=O)/C(C)=C\C=C\[C@H](C)[C@H](O)[C@@H](C)[C@@H](O)[C@@H](C)[C@H](OC(C)=O)[C@@H]1C` [RIFAMPIN], in data set [2], the MIC stood at 2.4 µM (≈ 1.98 µg/mL). Besides, the inhibition at 100 µg/mL in data set [3] is above 99%.
On to `O=C(/C=C/c1c[nH]c2ccccc12)c1ccc(-c2ccoc2)cc1`, for which the inhibition at 50 µg/mL in data set [1] amounted to 85.3%. Moreover, the viability at 24 h in data set [4] is above 60%; in data set [5] it was above 80%. For the same compound, the MIC in data set [2] worked out at 210 µM (≈ 65.8 µg/mL). Further, the inhibition at 100 µg/mL in data set [3] was found to be 87.7%.
On to `O=C(/C=C/c1c[nH]c2ccccc12)c1ccc(O)cc1`, for which, in data set [1], the inhibition at 50 µg/mL is 54.9%. Moreover, the MIC in data set [2] amounted to 189 µM (≈ 49.8 µg/mL). For the same compound, in data set [3], the inhibition at 100 µg/mL came out at 55.1%.
Regarding `COc1ccc(C(=O)/C=C/c2c[nH]c3ccccc23)cc1OC`, the inhibition at 50 µg/mL in data set [1] was 27.1%. Besides, the MIC in data set [2] is above 325 µM. Besides, the inhibition at 100 µg/mL in data set [3] came out at 31.7%.
On to `Nc1cccc(C(=O)/C=C/c2c[nH]c3ccccc23)c1`, for which, in data set [1], the inhibition at 50 µg/mL worked out at 37.2%. The MIC in data set [2] was above 381 µM. For the same compound, the inhibition at 100 µg/mL in data set [3] was determined as 48.7%.
For `O=C(/C=C/c1c[nH]c2ccccc12)N1CCN(c2ccc(O)cc2)CC1`, in that order: 63.8%, 143 µM (≈ 49.7 µg/mL) and 76.4%.
For `O=C(/C=C/c1c[nH]c2ccccc12)c1ccc(-c2ccsc2)cc1`, the inhibition at 50 µg/mL in data set [1] worked out at 62%. In addition, the MIC in data set [2] was found to be 197 µM (≈ 64.9 µg/mL). For the same compound, in data set [3], the inhibition at 100 µg/mL was determined as 63.4%.
As to `O=C1CCC/C1=C\c1cc2ccccc2[nH]1`, the inhibition at 50 µg/mL in data set [1] was determined as 84.3%. Further, the viability at 24 h in data set [4] is above 60%; in data set [5], above 80%. Moreover, the MIC in data set [2] worked out at 236 µM (≈ 49.9 µg/mL). The inhibition at 100 µg/mL in data set [3] was 86.3%.
For `O=C(/C=C/c1c[nH]c2ccccc12)c1ccc(-c2cccs2)cc1`, the inhibition at 50 µg/mL in data set [1] was 82%. Also, the viability at 24 h is above 60% in data set [4] and above 80% in data set [5]. Also, in data set [2], the MIC stood at 197 µM (≈ 64.9 µg/mL). The inhibition at 100 µg/mL in data set [3] stood at 87.2%.
Turning to `COc1cccc(C(=O)/C=C/c2c[nH]c3ccccc23)c1`, the inhibition at 50 µg/mL in data set [1] was found to be 27.1%. Besides, in data set [2], the MIC is above 360 µM. Also, in data set [3], the inhibition at 100 µg/mL amounted to 36.7%.
In the same order, the values of `O=C(/C=C/c1c[nH]c2ccccc12)c1ccc(Cl)cc1` are 48.6%, above 355 µM and 50.6%.
Turning to `O=C(/C=C/c1c[nH]c2ccccc12)c1ccc2c(c1)OCO2`, the inhibition at 50 µg/mL in data set [1] worked out at 66.8%. Further, the MIC in data set [2] was determined as 171 µM (≈ 49.8 µg/mL). Moreover, the inhibition at 100 µg/mL in data set [3] stood at 75.7%.
For `O=C(/C=C/c1c[nH]c2ccccc12)c1cccnc1`, in that order: 63.1%, 201 µM (≈ 49.9 µg/mL) and 70.7%.
For `O=C(/C=C/c1c[nH]c2ccccc12)c1ccc(-n2ccnc2)cc1`, in data set [1], the inhibition at 50 µg/mL came to 63.6%. Besides, the MIC in data set [2] is 159 µM (≈ 49.8 µg/mL). Also, the inhibition at 100 µg/mL in data set [3] amounted to 70.7%.
For `O=C(/C=C/c1c[nH]c2ccccc12)c1ccccn1`, in that order: 53.1%, 201 µM (≈ 49.9 µg/mL) and 62%.
Take `NNC(=O)c1ccncc1` [ISONIAZID]: in data set [2], the MIC was 1.4 µM (≈ 0.192 µg/mL). The inhibition at 100 µg/mL in data set [3] was above 99%.

(Values after ChEMBL document CHEMBL4680256, “Indole chalcones: Design, synthesis, in vitro and in silico evaluation against Mycobacterium tuberculosis” (Eur J Med Chem, 2020).)
